# In paper PMC6271945, “Avicequinone C Isolated from Avicennia marina Exhibits 5α-Reductase-Type 1 Inhibitory Activity Using an Androgenic Alopecia Relevant Cell-Based Assay System” (Molecules, 2014):
# How the values were obtained:
# [1] = target: T1, 5α-reductase type 1 (5α-R1) (Homo sapiens, UniProt P18405); assay: HHDPC cell-based assay of testosterone to […]α-DHT conversion (endogenous […]α-R1), non-radioactive TLC detection
# T1 construct: gene SRD5A1
# T1 sequence (P18405 1-259): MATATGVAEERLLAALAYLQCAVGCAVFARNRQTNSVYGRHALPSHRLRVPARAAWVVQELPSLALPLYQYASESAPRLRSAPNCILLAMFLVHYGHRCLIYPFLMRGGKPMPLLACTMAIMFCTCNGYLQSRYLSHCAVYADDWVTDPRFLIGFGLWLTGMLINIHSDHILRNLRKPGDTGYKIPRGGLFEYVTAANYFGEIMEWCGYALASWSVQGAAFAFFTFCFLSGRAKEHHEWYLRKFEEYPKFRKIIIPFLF
# [2] = target: T1, 5α-reductase type 1 (5α-R1); assay: HHDPC cell-based assay of testosterone to […]α-DHT conversion (endogenous […]α-R1), TLC detection; positive control
SMILES,IC50 [1] [µM],"HHDPC cell-based assay of testosterone to 5α-DHT conversion (endogenous 5α-R1), [2]"
"CC(C)(O)c1cc2c(o1)C(=O)c1ccccc1C2=O [G1, naphtho 2'-(1-hydroxy-1-methylethyl)[2,3-β]furan-1,4-dione]",38.8 ± 1.29,
C[C@]12C=CC(=O)N[C@@H]1CC[C@@H]1[C@@H]2CC[C@]2(C)[C@@H](C(=O)Nc3cc(C(F)(F)F)ccc3C(F)(F)F)CC[C@@H]12 [dutasteride],,complete inhibition at 0.1 and 0.01 µg/mL; 16.5% at 0.001
